In patent US11013235B2 (priority 2015, dated 2021):
Where two headings read alike, the source gives them in different places.

Tests used:
Assay type in all cases: in vivo
Pratylenchus coffeae = experiment: Nematode control, nodules per plant: Pratylenchus coffeae; conditions: 1 μM foliar application every 5 days, evaluation 35 days after, control 42
Method in brief: (§1)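 Ten plants per group were treated by spraying leaves only, every 5 days, with compound at 1 μM in water diluted from ethanol, and final nodule counts per plant were taken after 35 days.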

[1] = test system: Candidatus 'Liberibacter asiaticus'; conditions: spraying every 15 days, 12 months after treatment, Citrus sinensis with HLB
Botrytis cinerea [2] = experiment: Control of Botrytis cinerea disease in Arabidopsis (Bc-At); conditions: 1 μM spraying every 24 hours for one week, water control 8.7
Method in brief: (§2)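 Inoculated plants received a daily 1 μM compound spray for seven days. Outcomes were plant mortality for Nocardia, leaves with symptoms (%) for Alternaria, and measured lesion diameter for Botrytis, relative to water-treated plants.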

Rhizoctonia solani [3] = experiment: Control of Rhizoctonia solani disease in tobacco (Rs-Nt); conditions: 1 μM spraying every 24 hours for one week, water control 87
Phytophthora parasitica = experiment: Control of Phytophthora parasitica disease in tobacco (Pp-Nt); conditions: 1 μM spraying every 24 hours for one week, water control 91
[4] = test system: Candidatus 'Liberibacter asiaticus'; conditions: 1 μM spray, during 6 months, diseased citrus plants
Botrytis cinerea [5] = experiment: Control of Botrytis cinerea disease in tomato (Bc-SI); conditions: 1 μM spraying every 24 hours for one week, water control 7.4
Method in brief: as §2

Rhizoctonia solani [6] = experiment: Control of Rhizoctonia solani disease in tomato (Rs-SI); conditions: 1 μM spraying every 24 hours for one week, water control 96
Botrytis cinerea [7] = experiment: Control of Botrytis cinerea disease in tobacco (Bc-Nt); conditions: 1 μM spraying every 24 hours for one week, water control 6.7
Method in brief: as §2

Nocardia sp = experiment: Control of Nocardia sp disease in tobacco (N-Nt); conditions: 1 μM spraying every 24 hours for one week, water control 58
Method in brief: as §2

Radopholus similis = experiment: Nematode control, nodules per plant: Radopholus similis; conditions: 1 μM foliar application every 5 days, evaluation 35 days after, control 45
Method in brief: as §1

Meloidogyne incognita = experiment: Nematode control, nodules per plant: Meloidogyne incognita; conditions: 1 μM foliar application every 5 days, evaluation 35 days after, control 34
Method in brief: as §1

Alternaria solani = experiment: Control of Alternaria solani disease in tomato (As-SI); conditions: 1 μM spraying every 24 hours for one week, water control 68
Method in brief: as §2

Row | SMILES | Pc: number of nodules per plant (Pratylenchus coffeae) | Titers of the bacterium ([1]; 0.001 μM) [copies per reaction] | Titers of the bacterium ([1]; 0.01 μM) [copies per reaction] | Titers of the bacterium ([1]; 1 μM) [copies per reaction] | Titers of the bacterium ([1]; 5 μM) [copies per reaction] | Titers of the bacterium ([1]; 10 μM) [copies per reaction] | Bc-At: mean of the diameter of the lesion (Botrytis cinerea [2]) [mm] | Rs-Nt: percentage of mortality (Rhizoctonia solani [3]) [%] | Pp-Nt: percentage of mortality (Phytophthora parasitica) [%] | Levels of the bacterium, application once a month compared to twice a month [4] | Bacterial reduction ([4]; once and twice a month) | Bc-SI: mean of the diameter of the lesion (Botrytis cinerea [5]) [mm] | Rs-SI: percentage of mortality (Rhizoctonia solani [6]) [%] | Bc-Nt: mean of the diameter of the lesion (Botrytis cinerea [7]) [mm] | N-Nt: percentage of mortality (Nocardia sp) [%] | Rs: number of nodules per plant (Radopholus similis) | Mi: number of nodules per plant (Meloidogyne incognita) | As-SI: percentage of leaves with the disease symptoms (Alternaria solani) [%]
1 | O=C(CCc1cc2cc3c(-c4ccccc4)coc3cc2oc1=O)NCC(O)CO (centres unmarked) [IB, N-(2,3-dihydroxypropyl)-3-{2-oxo-6-phenyl-2H-furo[3,2-g]chromen-3-yl}propanamide] | 13 | 598 | 15 | 0 | 98 | 9751 | 1.1 | 3 | 2 | reduced significantly | bacterial reduction was observed in both tested variants | 1.6 | 2 | 2.0 | 1 | 24 | 3 | 2
2 | CN1c2cc(C(=O)NC3CCCCC3)ccc2OCC1CC(=O)NC(CO)CO (centres unmarked) [VF, N-cyclohexyl-3-{[(1,3-dihydroxypropan-2-yl)carbamoyl]methyl}-4-methyl-3,4-dihydro-2H-1,4-benzoxazine-6-carboxamide] | 1 | 985 | 1 | 0 | 98 | 2365 | 1.5 | 2 | 1 | – | – | 2.5 | 3 | 1.5 | 1 | 1 | 2 | 1
3 | O=C(CC1COc2ccc(C(=O)NC3CCCC3)cc2N1)NC(CO)CO (centres unmarked) [VG, N-cyclopentyl-3-{[(1,3-dihydroxypropan-2-yl)carbamoyl]methyl}-3,4-dihydro-2H-1,4-benzoxazine-6-carboxamide] | 1 | 657 | 8 | 0 | 67 | 3654 | 2.4 | 2 | 1 | – | – | 0.8 | 3 | 1.5 | 1 | 1 | 2 | 1
4 | CN1c2cc(C(=O)NC3CCCC3)ccc2OCC1CC(=O)NC(CO)CO (centres unmarked) [VH, N-cyclopentyl-3-{[(1,3-dihydroxypropan-2-yl)carbamoyl]methyl}-4-methyl-3,4-dihydro-2H-1,4-benzoxazine-6-carboxamide] | 1 | 658 | 4 | 0 | 68 | 6541 | 0.7 | 3 | 2 | – | – | 1.2 | 2 | 0.9 | 1 | 2 | 3 | 2
5 | CN1c2cc(C(N)=O)ccc2OCC1CC(=O)NC(CO)CO (centres unmarked) [VJ, 3-{[(1,3-dihydroxypropan-2-yl)carbamoyl]methyl}-4-methyl-3,4-dihydro-2H-1,4-benzoxazine-6-carboxamide] | 14 | 456 | 0 | 0 | 56 | 1351 | 1.2 | 0 | 0 | – | – | 0.8 | 2 | 0.3 | 1 | 0 | 0 | 8
6 | O=C(CC1COc2ccc(C(=O)Nn3cccc3)cc2N1)NC(CO)CO (centres unmarked) [VK, 3-{[(1,3-dihydroxypropan-2-yl)carbamoyl]methyl}-N-(1H-pyrrol-1-yl)-3,4-dihydro-2H-1,4-benzoxazine-6-carboxamide] | 0 | 435 | 0 | 0 | 45 | 2547 | 1.1 | 0 | 0 | – | – | 1.6 | 0 | 2.0 | 0 | 0 | 0 | 7
